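All cell lines were grown in 96-well plates and treated with compound for 48 hours. Definition used: TGI = concentration required for complete inhibition of growth.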
Tests used:
Experiment in all cases: NCI-60 cell line screen, 48 h
[1] = system: UACC-62 melanoma
[2] = system: OVCAR-8 ovarian
[3] = system: LOX IMVI melanoma
[4] = system: XF 498 CNS
[5] = system: SR leukemia
[6] = system: COLO 205 colon
[7] = system: HOP-62 NSCLC
[8] = system: IGROV1 ovarian
[9] = system: M14 melanoma
[10] = system: DMS 114 small cell lung
[11] = system: K-562 leukemia
[12] = system: OVCAR-4 ovarian
[13] = system: KM20L2 colon
[14] = system: HCC-2998 colon
[15] = system: DLD-1 colon
[16] = system: EKVX NSCLC
[17] = system: HCT-15 colon
[18] = system: 786-0 renal
[19] = system: RPMI-8226 leukemia
[20] = system: SW-620 colon
[21] = system: LXFL 529 NSCLC
[22] = system: CAKI-1 renal
[23] = system: A549 NSCLC
[24] = system: HL-60(TB) leukemia
[25] = system: SK-MEL-5 melanoma
[26] = system: SK-MEL-2 melanoma
[27] = system: U251 CNS
[28] = system: SK-OV-3 ovarian
[29] = system: DMS 273 small cell lung
[30] = system: ACHN renal
[31] = system: CCRF-CEM leukemia
[32] = system: M19-MEL melanoma
[33] = system: TK-10 renal
[34] = system: MOLT-4 leukemia
[35] = system: SN12C renal
[36] = system: MALME-3M melanoma
[37] = system: OVCAR-5 ovarian
[38] = system: UACC-257 melanoma
[39] = system: RXF-631 renal
[40] = system: NCI-H23 lung
[41] = system: NCI-H226 lung
[42] = system: SF-268 CNS
[43] = system: HT29 colon
[44] = system: HCT-116 colon
[45] = system: HOP-92 NSCLC
[46] = system: A498 renal
[47] = system: SNB-75 CNS
[48] = system: NCI-H460 lung
[49] = system: RXF 393 renal
[50] = system: OVCAR-3 ovarian
[51] = system: SF-539 CNS
[52] = system: SNB-19 CNS
[53] = system: SNB-78 CNS
[54] = system: UO-31 renal
[55] = system: SF-295 CNS
[56] = system: SK-MEL-28 melanoma
[57] = system: NCI-H522 lung

CC#Cc1c(O)c2c(c(O)c1C#CC)C(=O)c1ccccc1C2=O
TGI [1]: > 100 µM
TGI [2]: > 100 µM
TGI [3]: > 100 µM
TGI [4]: > 100 µM
TGI [5]: > 100 µM
TGI [6]: > 100 µM
TGI [7]: > 100 µM
TGI [8]: > 100 µM
TGI [9]: > 100 µM
TGI [10]: > 100 µM
TGI [11]: > 100 µM
TGI [12]: > 100 µM
TGI [13]: > 100 µM
TGI [14]: > 100 µM
TGI [15]: > 100 µM
TGI [16]: > 100 µM
TGI [17]: > 100 µM
TGI [18]: > 100 µM
TGI [19]: > 100 µM
TGI [20]: > 100 µM
TGI [21]: 42.7 µM
TGI [22]: > 100 µM
TGI [23]: > 100 µM
TGI [24]: > 100 µM
TGI [25]: > 100 µM
TGI [26]: > 100 µM
TGI [27]: > 100 µM
TGI [28]: > 100 µM
TGI [29]: > 100 µM
TGI [30]: > 100 µM
TGI [31]: > 100 µM
TGI [32]: > 100 µM
TGI [33]: > 100 µM
TGI [34]: > 100 µM
TGI [35]: > 100 µM
TGI [36]: > 100 µM
TGI [37]: > 100 µM

O=C(CC1(O)C(=O)Nc2c(Cl)cc(Cl)cc21)c1ccccc1 (stereo not drawn)
TGI [1]: > 100 µM
TGI [2]: > 100 µM
TGI [38]: > 100 µM
TGI [39]: > 100 µM
TGI [3]: > 100 µM
TGI [4]: > 100 µM
TGI [6]: > 100 µM
TGI [40]: > 100 µM
TGI [41]: > 100 µM
TGI [42]: > 100 µM
TGI [8]: > 100 µM
TGI [9]: > 100 µM
TGI [43]: > 100 µM
TGI [10]: > 100 µM
TGI [11]: > 100 µM
TGI [12]: > 100 µM
TGI [44]: > 100 µM
TGI [45]: > 100 µM
TGI [46]: > 100 µM
TGI [13]: > 100 µM
TGI [16]: > 100 µM
TGI [47]: > 100 µM
TGI [17]: > 100 µM
TGI [48]: > 100 µM
TGI [18]: > 100 µM
TGI [49]: > 100 µM
TGI [19]: > 100 µM
TGI [50]: > 100 µM
TGI [20]: > 100 µM
TGI [21]: > 100 µM
TGI [22]: > 100 µM
TGI [23]: > 100 µM
TGI [24]: > 100 µM
TGI [25]: > 100 µM
TGI [26]: > 100 µM
TGI [28]: > 100 µM
TGI [29]: > 100 µM
TGI [30]: > 100 µM
TGI [51]: > 100 µM
TGI [52]: > 100 µM
TGI [32]: > 100 µM
TGI [53]: > 100 µM
TGI [54]: > 100 µM
TGI [33]: > 100 µM
TGI [55]: > 100 µM
TGI [56]: > 100 µM
TGI [34]: > 100 µM
TGI [35]: > 100 µM
TGI [36]: > 100 µM
TGI [37]: > 100 µM
TGI [57]: > 100 µM

Source: PubChem BioAssay (NCI)
